Where two headings read alike, the source gives them in different places.
Tests used:
[1] = Ocular bioavailability following intravenous administration (Example 2); format: in vivo, New Zealand White rabbit; conditions: rabbit; 15 mg/kg i.v.; FIG. 3
Excerpt: This study was designed to model the ocular bioavailability of mecamylamine when administered systemically. Rabbit eyes are the preferred model for in vivo modeling of ocular drugs, however, the rabbit is not the subject of choice for modeling oral bioavailability. However, systemic administration does emulate orally administered mecamylamine to a reasonable approximation since mecamylamine has rapid absorption and high oral bioavailability. Therefore, intravenous injection was used to model ocular bioavailability of mecamylamine administered systemically, in order to determine the deposition of mecamylamine to the plasma, vitreous and posterior tissues (retina/choroid) of the eye from the blood.
The study comprised 2 groups (each N=6, 12 rabbits total) of male NZW (New Zealand White) rabbits weighing approximately 2.5-3 kg and obtained from Kralek Farms (Turlock, Calif.). Mecamylamine solution, prepared as described in Example 1, at a dose of 15 mg/kg was delivered via i.v. infusion as either a short infusion (1 hr) or slow infusion (6 hr) in rabbits sedated by ketamine/xylazine, with the slow infusion intended to model controlled systemic release of the mecamylamine.
For both groups, samples of the vitreous(≧0.1 ml) and plasma were withdrawn at 6 time points: pre-dose, 30 min, 1, 2, 4, and 6 hr. At 6 hours, all animals were sacrificed and vitreous and retinal tissues were collected. The total amount of mecamylamine administered during each infusion was the same, based on the weight of the individual rabbit.
The concentrations of mecamylamine present in the various samples were analyzed as described in Example 6, below.

[2] = 6-hour ocular pharmacokinetics of 2% Mecamylamine GELRITE solution following topical instillation (Example 10); format: in vivo, New Zealand White rabbit; conditions: rabbit; for concentration at 1 h / concentration at 3 h / concentration at 6 h: female, New Zealand White, topical; for Mecamylamine concentration in blood Cell Fraction, Mean / Mecamylamine concentration in blood Plasma, Mean: Pre
Method: The time of each dose administration was recorded. There was no mortality in the treatment group.

[3] = system: eyes of New Zealand White rabbits; experiment: Pupil diameter, pupillary response and mortality observations after topical ocular instillation in rabbits (Example 10); conditions: rabbit; 2 drops of 50 μL topically
Method: The objective of this study was to evaluate the ocular pharmacokinetics of a 2% Mecamylamine in a GELRITE solution up to 6 hours following topical instillation into the eyes of New Zealand White rabbits. Nine New Zealand White female rabbits of minimum age of 9 weeks and weight 2-3 kg were obtained from The Rabbit Source (Ramona, Calif.) were used in the study.
On day 1, 2 drops of 50 μL of mecamylamine or vehicle were administered topically into the appropriate eye(s) of each animal as described in Table 13. The time of each dose administration was recorded.

healthy adults = experiment: Phase 1 ocular and systemic safety of mecamylamine ophthalmic solution (Example 11); format: in vivo; conditions: human
Excerpt: A phase 1 study entitled: “A Phase 1, Double-Masked, Randomized, 1-Day and 14-Day Escalating Dose Study to Assess the Ocular and Systemic Safety of Mecamylamine Ophthalmic Solution” was initiated in the United States in healthy adults. The safety objectives of this study were to evaluate the ocular and systemic safety of 4 concentrations of mecamylamine ophthalmic solution following 1-day (administered twice) and 14-day (BID) administration. The dose levels of mecamylamine ophthalmic solution evaluated were 0.03%, 0.1%, 0.3%, and 1%. A summary of the composition of the mecamylamine ophthalmic solution and placebo formulation is shown below in Table 7.
In the 1-day portion of the study, 10 subjects in each group were dosed in a single eye on two occasions with 6 hours between dosing. […] Subjects were evaluated for local (ocular) safety and tolerability based upon evaluation of ocular symptoms, ocular comfort, best-corrected visual acuity, biomicroscopy with fluorescein staining, measurement of intraocular pressure (IOP) by Goldman applanation tonometry, ophthalmoscopy, pupil size, and Schirmer's Test. They were also evaluated for systemic safety based upon assessment of physical examination, 12-lead ECG, vital signs, adverse events, hematology, clinical chemistry, and, urinalysis.

[4] = system: VEGF-induced endothelial tube formation; experiment: VEGF-induced endothelial tube formation in vitro; format: cell-based
[5] = cited from earlier work

CNC1(C)C2CCC(C2)C1(C)C (centres unmarked) [mecamylamine, N-2,3,3-tetramethylbicyclo(2.2.1)heptan-2-amine]
amount of mecamylamine reaching the retina/choroid, long infusion versus short infusion [1]: more than 2 fold
concentration at 1 h ([2]; aqueous humor, 2% in GELRITE, 2 × 50 μL, OS (unilateral) treated eye, 1 hr, read-out: Mecamylamine concentration in Aqueous humor, Mean): 2510 ng/g
concentration at 1 h ([2]; aqueous humor, 2% in GELRITE, 2 × 50 μL, OU (bilateral), 1 hr, read-out: Mecamylamine concentration in Aqueous humor, Mean): 3910 ng/g
concentration at 3 h ([2]; aqueous humor, 2% in GELRITE, 2 × 50 μL, OU (bilateral), 3 hr, read-out: Mecamylamine concentration in Aqueous humor, Mean): 500 ng/g
concentration at 6 h ([2]; aqueous humor, 2% in GELRITE, 2 × 50 μL, OU (bilateral), 6 hr, read-out: Mecamylamine concentration in Aqueous humor, Mean): 48.9 ng/g
concentration at 1 h ([2]; aqueous humor, fellow (vehicle) eye of unilaterally dosed animals, 1 hr, read-out: Mecamylamine concentration in Aqueous humor, Mean): 9.7 ng/g
concentration at 1 h ([2]; blood cell fraction, group MEC OS 1 hr, Post, read-out: Mecamylamine concentration in blood Cell Fraction, Mean): 15 ng/mL
concentration at 1 h ([2]; blood cell fraction, group MEC OU 1 hr, Post, read-out: Mecamylamine concentration in blood Cell Fraction, Mean): 33.1 ng/mL
concentration at 3 h ([2]; blood cell fraction, group MEC OU 3 hr, Post, read-out: Mecamylamine concentration in blood Cell Fraction, Mean): 7 ng/mL
concentration at 6 h ([2]; blood cell fraction, group MEC OU 6 hr, Post, read-out: Mecamylamine concentration in blood Cell Fraction, Mean): 1.2 ng/mL
concentration at 1 h ([2]; choroid (treated eye), 2% in GELRITE, 2 × 50 μL, OS (unilateral) treated eye, 1 hr, read-out: Mecamylamine concentration in Choroid, Mean): ~2800 ng/g
concentration at 1 h ([2]; choroid of the fellow (vehicle) eye, fellow (vehicle) eye of unilaterally dosed animals, 1 hr, read-out: Mecamylamine concentration in Choroid, Mean): ~700 ng/g
concentration at 1 h ([2]; choroid, 2% in GELRITE, 2 × 50 μL, OU (bilateral), 1 hr, read-out: Mecamylamine concentration in Choroid, Mean): ~14000 ng/g
concentration at 6 h ([2]; choroid, 2% in GELRITE, 2 × 50 μL, OU (bilateral), 6 hr, read-out: Mecamylamine concentration in Choroid, Mean): ~260 ng/g
concentration at 1 h ([2]; cornea, 2% in GELRITE, 2 × 50 μL, OS (unilateral) treated eye, 1 hr, read-out: Mecamylamine concentration in Cornea, Mean): 9600 ng/g
concentration at 1 h ([2]; cornea, 2% in GELRITE, 2 × 50 μL, OU (bilateral), 1 hr, read-out: Mecamylamine concentration in Cornea, Mean): 17900 ng/g
concentration at 3 h ([2]; cornea, 2% in GELRITE, 2 × 50 μL, OU (bilateral), 3 hr, read-out: Mecamylamine concentration in Cornea, Mean): 3820 ng/g
concentration at 6 h ([2]; cornea, 2% in GELRITE, 2 × 50 μL, OU (bilateral), 6 hr, read-out: Mecamylamine concentration in Cornea, Mean): 1230 ng/g
concentration at 1 h ([2]; cornea, fellow (vehicle) eye of unilaterally dosed animals, 1 hr, read-out: Mecamylamine concentration in Cornea, Mean): 652 ng/g
concentration at 1 h ([2]; plasma, group MEC OS 1 hr, Post, read-out: Mecamylamine concentration in blood Plasma, Mean): 16.3 ng/mL
concentration at 1 h ([2]; plasma, group MEC OU 1 hr, Post, read-out: Mecamylamine concentration in blood Plasma, Mean): 37.8 ng/mL
concentration at 3 h ([2]; plasma, group MEC OU 3 hr, Post, read-out: Mecamylamine concentration in blood Plasma, Mean): 8.3 ng/mL
concentration at 6 h ([2]; plasma, group MEC OU 6 hr, Post, read-out: Mecamylamine concentration in blood Plasma, Mean): 0.3 ng/mL
concentration at 1 h ([2]; retina, 2% in GELRITE, 2 × 50 μL, OS (unilateral) treated eye, 1 hr, read-out: Mecamylamine concentration in Retina, Mean): 4160 ng/g
concentration at 1 h ([2]; retina, 2% in GELRITE, 2 × 50 μL, OU (bilateral), 1 hr, read-out: Mecamylamine concentration in Retina, Mean): 14700 ng/g
concentration at 3 h ([2]; retina, 2% in GELRITE, 2 × 50 μL, OU (bilateral), 3 hr, read-out: Mecamylamine concentration in Retina, Mean): 563 ng/g
concentration at 6 h ([2]; retina, 2% in GELRITE, 2 × 50 μL, OU (bilateral), 6 hr, read-out: Mecamylamine concentration in Retina, Mean): 310 ng/g
concentration at 1 h ([2]; retina, fellow (vehicle) eye of unilaterally dosed animals, 1 hr, read-out: Mecamylamine concentration in Retina, Mean): 781 ng/g
concentration at 1 h ([2]; vitreous humor, 2% in GELRITE, 2 × 50 μL, OS (unilateral) treated eye, 1 hr, read-out: Mecamylamine concentration in Vitreous humor, Mean): 37.8 ng/g
concentration at 1 h ([2]; vitreous humor, 2% in GELRITE, 2 × 50 μL, OU (bilateral), 1 hr, read-out: Mecamylamine concentration in Vitreous humor, Mean): 131 ng/g
concentration at 3 h ([2]; vitreous humor, 2% in GELRITE, 2 × 50 μL, OU (bilateral), 3 hr, read-out: Mecamylamine concentration in Vitreous humor, Mean): 17.7 ng/g
concentration at 6 h ([2]; vitreous humor, 2% in GELRITE, 2 × 50 μL, OU (bilateral), 6 hr, read-out: Mecamylamine concentration in Vitreous humor, Mean): 5.9 ng/g
concentration at 1 h ([2]; vitreous humor, fellow (vehicle) eye of unilaterally dosed animals, 1 hr, read-out: Mecamylamine concentration in Vitreous humor, Mean): 10.4 ng/g
Mecamylamine concentration in Choroid, Mean ([2]; 2% in GELRITE, 2 × 50 μL, OS (unilateral) treated eye, 1 hr, listed as MEC): 2806.7 ng/g
Mecamylamine concentration in Choroid, Mean ([2]; 2% in GELRITE, 2 × 50 μL, OU (bilateral), 1 hr, listed as MEC): 14170.0 ng/g
Mecamylamine concentration in Choroid, Mean ([2]; 2% in GELRITE, 2 × 50 μL, OU (bilateral), 3 hr): ~500 ng/g
Mecamylamine concentration in Choroid, Mean ([2]; 2% in GELRITE, 2 × 50 μL, OU (bilateral), 3 hr, listed as MEC): 1086.0 ng/g
Mecamylamine concentration in Choroid, Mean ([2]; 2% in GELRITE, 2 × 50 μL, OU (bilateral), 6 hr, listed as MEC): 264.5 ng/g
Mean levels in the plasma and packed cells ([2]; 2% in GELRITE, highest one hour after bilateral dosing): 5 to 38 ng/mL
Mecamylamine concentration in Choroid, Mean ([2]; fellow (vehicle) eye of unilaterally dosed animals, 1 hr, listed as MEC): 705.7 ng/g
Mecamylamine concentration in blood Cell Fraction, Mean ([2]; group MEC OS 1 hr): 0.0 ng/mL
Mecamylamine concentration in blood Plasma, Mean ([2]; group MEC OS 1 hr): 0.0 ng/mL
Mecamylamine concentration in blood Cell Fraction, Mean ([2]; group MEC OU 1 hr): 0.0 ng/mL
Mecamylamine concentration in blood Plasma, Mean ([2]; group MEC OU 1 hr): 0.0 ng/mL
Mecamylamine concentration in blood Cell Fraction, Mean ([2]; group MEC OU 3 hr): 0.0 ng/mL
Mecamylamine concentration in blood Plasma, Mean ([2]; group MEC OU 3 hr): 0.0 ng/mL
Mecamylamine concentration in blood Cell Fraction, Mean ([2]; group MEC OU 6 hr): 0.0 ng/mL
Mecamylamine concentration in blood Plasma, Mean ([2]; group MEC OU 6 hr): 0.0 ng/mL
mortality [3]: no mortality
best-corrected visual acuity (healthy adults): no change in best corrected visual acuity
pupil size (healthy adults): none of the subjects tested showing an increase in pupil diameter
VEGF-induced endothelial tube formation [4]: inhibited
pka [5]: ~11.2

— US20070167526A1, “Topical mecamylamine formulations for ocular administration and uses thereof” (priority 2005, published 2007)
